Measurements taken from the supplement of paper PMC10307832.

Tests used:
Experiment in all cases: relative viability (nuclei count vs DMSO), 5 days (fraction); higher = more cells survive
[1] = compound: OCc1c[nH]c2ccccc12 [Indole-3-carbinol] + CCNC(=O)c1noc(-c2cc(C(C)C)c(O)cc2O)c1-c1ccc(CN2CCOCC2)cc1 [Luminespib] (partner 0.01 µM)
Outline: (§1)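 Relative viability equals treated-well nuclei counts divided by vehicle-well nuclei counts. Counts came from 4× images of lung cancer cell lines grown in 1536-well plates for 5 days after pin-tool dosing on the day after seeding. Dosing used one drug alone or a fixed anchor-drug dose plus five library-drug doses (not always all listed) in √10 steps, and values are medians of duplicate plates.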

[2] = compound: OCc1c[nH]c2ccccc12 [Indole-3-carbinol] + CS(=O)(=O)N1CCN(Cc2cc3nc(-c4cccc5[nH]ncc45)nc(N4CCOCC4)c3s2)CC1 [Pictilisib] (partner 1 µM)
Outline: as §1

[3] = compound: OCc1c[nH]c2ccccc12 [Indole-3-carbinol] + C[C@@H](Oc1cc(-c2cnn(C3CCNCC3)c2)cnc1N)c1c(Cl)ccc(F)c1Cl [Crizotinib] (partner 1 µM)
Outline: as §1

[4] = compound: OCc1c[nH]c2ccccc12 [Indole-3-carbinol] + C[C@]1(O)C[C@@H](c2nc(-c3ccc4ccc(-c5ccccc5)nc4c3)c3c(N)nccn32)C1 [Linsitinib] (partner 1 µM)
Outline: as §1

[5] = compound: OCc1c[nH]c2ccccc12 [Indole-3-carbinol] + N=C(N)NC(=N)NCCc1ccccc1 [Phenformin] (partner 250 µM)
Outline: as §1

Row | Cell Line | relative viability ([1]; first compound 0.253 µM) | relative viability ([1]; first compound 0.8 µM) | relative viability ([1]; first compound 2.53 µM) | relative viability ([1]; first compound 8 µM) | relative viability ([2]; first compound 0.253 µM) | relative viability ([2]; first compound 0.8 µM) | relative viability ([2]; first compound 2.53 µM) | relative viability ([2]; first compound 8 µM) | relative viability ([3]; first compound 0.253 µM) | relative viability ([3]; first compound 0.8 µM) | relative viability ([3]; first compound 2.53 µM) | relative viability ([3]; first compound 8 µM) | relative viability ([4]; first compound 0.253 µM) | relative viability ([4]; first compound 0.8 µM) | relative viability ([4]; first compound 2.53 µM) | relative viability ([4]; first compound 8 µM) | relative viability ([5]; first compound 0.253 µM) | relative viability ([5]; first compound 0.8 µM) | relative viability ([5]; first compound 2.53 µM) | relative viability ([5]; first compound 8 µM)
1 | NCI-H2009 | 1.05 | 1.08 | 1.05 | 0.893 | 0.842 | 0.743 | 0.763 | 0.837 | 0.993 | 1.07 | 0.953 | 1 | 1.24 | 1.26 | 1.17 | 1.13 | 0.512 | 0.515 | 0.506 | 0.465
2 | HCC-78 | – | – | – | – | 0.202 | 0.205 | 0.192 | 0.196 | 0.307 | 0.328 | 0.369 | 0.342 | 0.534 | 0.449 | 0.547 | 0.538 | 0.654 | 0.626 | 0.667 | 0.845
3 | NCI-H2170 | 0.74 | 0.665 | 0.841 | 0.624 | 0.329 | 0.308 | 0.322 | 0.311 | 1.26 | 1.3 | 1.15 | 1.03 | – | – | – | – | 0.451 | 0.385 | 0.432 | 0.418
4 | NCI-H1793 | 0.171 | 0.179 | 0.142 | 0.175 | 0.461 | 0.204 | 0.376 | 0.271 | – | – | – | – | 0.932 | 0.898 | 1.08 | 0.927 | 0.438 | 0.409 | 0.499 | 0.339
5 | HCC-366 | – | – | – | – | 0.175 | 0.111 | 0.18 | 0.18 | 0.606 | 0.497 | 0.732 | 0.561 | 0.663 | 0.369 | 0.615 | 0.705 | 0.645 | 0.61 | 0.696 | 0.565
6 | NCI-H1651 | 0.848 | 0.877 | 0.686 | 0.753 | 0.613 | 0.486 | 0.499 | 0.554 | 0.766 | 0.841 | 0.917 | 0.886 | 0.873 | 1.11 | 1.06 | 0.895 | 0.287 | 0.349 | 0.315 | 0.424
7 | LC-2-ad | 1.13 | 1.15 | 1.26 | 0.953 | 0.439 | 0.502 | 0.466 | 0.464 | 0.514 | 0.439 | 0.484 | 0.42 | 0.827 | 0.791 | 0.806 | 0.783 | 0.597 | 0.525 | 0.638 | 0.588
8 | HCC-827 | 0.579 | 0.622 | 0.67 | 0.644 | 0.926 | 1.04 | 0.841 | 1.07 | 0.9 | 1.03 | 0.945 | 0.892 | 1.04 | 1.01 | 0.962 | 0.942 | 0.389 | 0.383 | 0.417 | 0.364
9 | SK-LU-1 | 0.214 | 0.228 | 0.211 | 0.203 | 0.568 | 0.405 | 0.522 | 0.551 | 1.01 | 1.01 | 0.989 | 0.823 | 1.05 | 1.19 | 1.09 | 1.02 | 0.582 | 0.57 | 0.58 | 0.534
